Experimental data from ChEMBL document CHEMBL2440073, “Antimalarial activity of compounds comprising a primary benzene sulfonamide fragment” (Bioorg Med Chem Lett, 2013).

Tests used:
Plasmodium falciparum [1] = experiment: Antimalarial activity against ring stage of chloroquine-sensitive Plasmodium falciparum 3D7 infected in erythrocytes assessed as [3H]-hypoxanthine incorporation after 48 hrs by liquid scintillation counting analysis; type: functional, organism-based
Plasmodium falciparum [2] = experiment: Antimalarial activity against ring stage of chloroquine-resistant Plasmodium falciparum Dd2 infected in erythrocytes assessed as [3H]-hypoxanthine incorporation after 48 hrs by liquid scintillation counting analysis; type: functional, organism-based
NFF = experiment: Cytotoxicity against human NFF cells after 3 days by SRB assay; type: cell-based; conditions: 72 h
[3] = Selectivity index, ratio of IC50 for human NFF cells to IC50 for Plasmodium falciparum; type: toxicity, cell-based; conditions: NFF cells (versus Plasmodium falciparum), read-out: Ratio IC50

## CC(=O)OC[C@H]1O[C@@H](OCc2nnn(-c3ccccc3)c2I)[C@H](OC(C)=O)[C@@H](OC(C)=O)[C@@H]1OC(C)=O
Plasmodium falciparum [1]
  IC50: 10.6 µM
Plasmodium falciparum [2]
  IC50: 9.4 µM

## CC(=O)OC[C@H]1O[C@@H](S(=O)(=O)Cc2cn(-c3ccc(S(N)(=O)=O)cc3)nn2)[C@H](OC(C)=O)[C@@H](OC(C)=O)[C@@H]1O[C@H]1O[C@H](COC(C)=O)[C@@H](OC(C)=O)[C@H](OC(C)=O)[C@H]1OC(C)=O
Plasmodium falciparum [1]
  IC50: 20.7 µM
Plasmodium falciparum [2]
  IC50: 14.7 µM

## NS(=O)(=O)c1ccc(-n2nnc(CS(=O)(=O)[C@@H]3O[C@H](CO)[C@@H](O)[C@H](O)[C@H]3O)c2I)cc1
Plasmodium falciparum [1]
  IC50: 28.6 µM
Plasmodium falciparum [2]
  IC50: > 50 µM

## CC(=O)OC[C@H]1O[C@@H](SCc2cn(-c3ccc(S(N)(=O)=O)cc3)nn2)[C@H](OC(C)=O)[C@@H](OC(C)=O)[C@@H]1OC(C)=O
Plasmodium falciparum [1]
  IC50: 31 µM
Plasmodium falciparum [2]
  IC50: > 25 µM

## COC(=O)[C@H]1O[C@@H](SCc2nnn(-c3ccc(S(N)(=O)=O)cc3)c2I)[C@H](OC(C)=O)[C@@H](OC(C)=O)[C@@H]1OC(C)=O
Plasmodium falciparum [1]
  IC50: 2.1 µM
Plasmodium falciparum [2]
  IC50: 6 µM
NFF
  IC50: > 100 µM

## CC(=O)OC[C@H]1O[C@@H](S(=O)(=O)Cc2nnn(-c3ccc(S(N)(=O)=O)cc3)c2I)[C@H](OC(C)=O)[C@@H](OC(C)=O)[C@@H]1OC(C)=O
Plasmodium falciparum [1]
  IC50: 5.3 µM
Plasmodium falciparum [2]
  IC50: 7.8 µM
NFF
  IC50: > 100 µM

## CC(=O)OC[C@H]1O[C@@H](SCc2nnn(-c3ccc(S(N)(=O)=O)cc3)c2I)[C@H](OC(C)=O)[C@@H](OC(C)=O)[C@H]1OC(C)=O
Plasmodium falciparum [1]
  IC50: 1.4 µM
Plasmodium falciparum [2]
  IC50: 4.1 µM
NFF
  IC50: > 100 µM

## CC(=O)OC[C@H]1O[C@@H](S(=O)(=O)Cc2cn(-c3ccccc3)nn2)[C@H](OC(C)=O)[C@@H](OC(C)=O)[C@@H]1OC(C)=O
Plasmodium falciparum [1]
  IC50: > 50 µM
Plasmodium falciparum [2]
  IC50: > 50 µM

## NS(=O)(=O)c1ccc(-n2cc(CS(=O)(=O)[C@@H]3O[C@H](CO)[C@@H](O)[C@H](O)[C@H]3O)nn2)cc1
Plasmodium falciparum [1]
  IC50: > 50 µM
Plasmodium falciparum [2]
  IC50: > 50 µM

## OC[C@H]1O[C@@H](SCc2nnn(-c3ccccc3)c2I)[C@H](O)[C@@H](O)[C@@H]1O
Plasmodium falciparum [1]
  IC50: 4.9 µM
Plasmodium falciparum [2]
  IC50: 4.4 µM

## CC(=O)OC[C@H]1O[C@@H](SCc2nnn(-c3ccccc3)c2I)[C@H](OC(C)=O)[C@@H](OC(C)=O)[C@@H]1OC(C)=O
Plasmodium falciparum [1]
  IC50: 4.6 µM
Plasmodium falciparum [2]
  IC50: 4.8 µM

## CC(=O)OC[C@H]1O[C@@H](OCc2nnn(-c3ccc(S(N)(=O)=O)cc3)c2I)[C@H](OC(C)=O)[C@@H](OC(C)=O)[C@@H]1OC(C)=O
Plasmodium falciparum [1]
  IC50: 2.8 µM
Plasmodium falciparum [2]
  IC50: 2.6 µM
NFF
  IC50: > 100 µM

## OC[C@H]1O[C@@H](SCc2cn(-c3ccccc3)nn2)[C@H](O)[C@@H](O)[C@@H]1O
Plasmodium falciparum [1]
  IC50: > 50 µM
Plasmodium falciparum [2]
  IC50: > 50 µM

## CC(=O)OC[C@H]1O[C@@H](S(=O)(=O)Cc2cn(-c3ccc(S(N)(=O)=O)cc3)nn2)[C@H](OC(C)=O)[C@@H](OC(C)=O)[C@@H]1OC(C)=O
Plasmodium falciparum [1]
  IC50: > 50 µM
Plasmodium falciparum [2]
  IC50: > 50 µM

## CC(=O)OC[C@H]1O[C@@H](OCc2cn(-c3ccccc3)nn2)[C@H](OC(C)=O)[C@@H](OC(C)=O)[C@@H]1OC(C)=O
Plasmodium falciparum [1]
  IC50: > 50 µM
Plasmodium falciparum [2]
  IC50: > 50 µM

## NS(=O)(=O)c1ccc(-n2cc(CS[C@@H]3O[C@H](CO)[C@@H](O)[C@H](O)[C@H]3O)nn2)cc1
Plasmodium falciparum [1]
  IC50: > 50 µM
Plasmodium falciparum [2]
  IC50: > 50 µM

## CC(=O)OC[C@H]1O[C@@H](OCc2cn(-c3ccc(S(N)(=O)=O)cc3)nn2)[C@H](OC(C)=O)[C@@H](OC(C)=O)[C@@H]1OC(C)=O
Plasmodium falciparum [1]
  IC50: 9.7 µM
Plasmodium falciparum [2]
  IC50: 11.7 µM

## NS(=O)(=O)c1ccc(-n2nnc(CS[C@@H]3O[C@H](CO)[C@@H](O)[C@H](O)[C@H]3O)c2I)cc1
Plasmodium falciparum [1]
  IC50: 1 µM
Plasmodium falciparum [2]
  IC50: 1.9 µM
[3]
  selectivity ratio: ≥ 40
NFF
  IC50: > 100 µM

## CC(=O)OC[C@H]1O[C@@H](S(=O)(=O)Cc2nnn(-c3ccc(S(N)(=O)=O)cc3)c2I)[C@H](OC(C)=O)[C@@H](OC(C)=O)[C@@H]1O[C@H]1O[C@H](COC(C)=O)[C@@H](OC(C)=O)[C@H](OC(C)=O)[C@H]1OC(C)=O
Plasmodium falciparum [1]
  IC50: 2.3 µM
Plasmodium falciparum [2]
  IC50: 2.4 µM
NFF
  IC50: > 100 µM

## CC(=O)OC[C@H]1O[C@@H](SCc2cn(-c3ccccc3)nn2)[C@H](OC(C)=O)[C@@H](OC(C)=O)[C@@H]1OC(C)=O
Plasmodium falciparum [1]
  IC50: > 50 µM
Plasmodium falciparum [2]
  IC50: > 50 µM

## CC(=O)OC[C@H]1O[C@@H](S(=O)(=O)Cc2nnn(-c3ccccc3)c2I)[C@H](OC(C)=O)[C@@H](OC(C)=O)[C@@H]1OC(C)=O
Plasmodium falciparum [1]
  IC50: 4.7 µM
Plasmodium falciparum [2]
  IC50: 3.4 µM

## CCN(CC)CCCC(C)Nc1ccnc2cc(Cl)ccc12 (stereo not drawn) [CHLOROQUINE]
NFF
  IC50: > 1000 µM

## O=S(=O)(Cc1cn(-c2ccccc2)nn1)[C@@H]1O[C@H](CO)[C@@H](O)[C@H](O)[C@H]1O
Plasmodium falciparum [1]
  IC50: > 50 µM
Plasmodium falciparum [2]
  IC50: > 50 µM

## O=S(=O)(Cc1nnn(-c2ccccc2)c1I)[C@@H]1O[C@H](CO)[C@@H](O)[C@H](O)[C@H]1O
Plasmodium falciparum [1]
  IC50: 3.8 µM
Plasmodium falciparum [2]
  IC50: 3.4 µM

## CC(=O)OC[C@H]1O[C@@H](SCc2nnn(-c3ccc(S(N)(=O)=O)cc3)c2I)[C@H](OC(C)=O)[C@@H](OC(C)=O)[C@@H]1OC(C)=O
Plasmodium falciparum [1]
  IC50: 0.9 µM
Plasmodium falciparum [2]
  IC50: 1.3 µM
[3]
  selectivity ratio: ≥ 40
NFF
  IC50: 51.1 µM
